Results from ChEMBL document CHEMBL5316371, “Paraconulones A-G: Eremophilane Sesquiterpenoids from the Marine-Derived Fungus Paraconiothyrium sporulosum DL-16” (J Nat Prod, 2023).

How the values were obtained:
BV-2 = assay: Antiinflammatory activity against mouse BV-2 cells assessed as reduction in LPS-induced NO production incubated for 24 hrs by Griess reagent based assay; assay type: functional, cell-based; conditions: BV-2, 24 h
[1] = Cytotoxicity against mouse BV-2 cells assessed as reduction in cell growth; assay type: toxicity, cell-based

SMILES	IC50 (BV-2)	CC50 [1]
C=C(C)[C@]1(O)C[C@@]2(C)C(=C[C@H]1O)C=CC(=O)[C@@H]2C	98 µM	> 50 µM
C[C@H](CO)C1=C[C@@]2(C)C(=CC1=O)C=CC(=O)[C@H]2C	40 µM	> 50 µM
CC1=C(C)[C@]2(C=CC1=O)C[C@@]1(O)[C@H](C)CO[C@@]1(O)C2	8.1 µM	> 50 µM
C[C@H](CO)[C@@H]1C[C@@]2(C)C(=CC1=O)C=CC(=O)[C@H]2C	8.1 µM	> 50 µM
COc1cc(/C=C/C(=O)CC(=O)/C=C/c2ccc(O)c(OC)c2)ccc1O [CURCUMIN]	8.6 µM	> 50 µM
CO[C@]12C=C3C=CC(=O)[C@@H](C)[C@@]3(C)C[C@@]1(O)[C@H](C)CO2 [MICROSPHAEROPSISIN]	80 µM	> 50 µM

The next molecules have a lower IC50 (BV-2) than those just listed; values first:

IC50 (BV-2)	SMILES	CC50 [1]
4.6 µM	CO[C@]12C=C3C=CC(=O)[C@H](C)[C@@]3(C)C[C@@]1(O)[C@H](C)CO2	> 50 µM
2.8 µM	CC(=O)OC[C@@H](C)[C@]1(O)C[C@@]2(C)C(=CC1=O)[C@@H]1[C@H](C(=O)[C@@H]2C)[C@H]2C(=O)[C@H](C)[C@@]3(C)C[C@@](O)([C@H](C)COC(C)=O)C(=O)C=C3[C@H]21	> 50 µM
6.9 µM	CO[C@]12C=C3C=C(C4=CC5=C[C@]6(OC)OC[C@@H](C)[C@]6(O)C[C@]5(C)[C@@H](C)C4=O)C(=O)[C@@H](C)[C@@]3(C)C[C@@]1(O)[C@H](C)CO2	> 50 µM
7.7 µM	CC(=O)OC[C@@H](C)[C@]1(O)C[C@@]2(C)C(=CC1=O)C=CC(=O)[C@H]2C	> 50 µM
